The results in this text go back to US7691420B2, “Compositions for the treatment and prevention of diabetes mellitus” (priority 2003, dated 2010).

Assay [1] concerns C57BLKS/J db/db mice. The assay is described as follows: Fed state plasma glucose, triglycerides and free fatty acids in db/db mice at end of study. Type of assay: in vivo. To be noted: 4 weeks. Here is the method:
(§1) This model of late type 2 diabetes with severe hyperglycemia and obesity is widely used to determine the efficacy of anti-diabetic and anti-obesity compounds.
(§2) Male db/db mice were obtained from Jackson Laboratory (Bar Harbor, Me., USA). Adult mice aged 8 weeks were used in the experiment. Mice were housed individually in plastic cages with bedding and allowed free access to standard rodent food and tap water. The animal rooms were controlled for temperature (24° C.), humidity (55%), and light (12-h light-dark cycle). The animals were randomized into four groups. […] Body weight and food intake were determined over the course of the study. Total adipose tissue weight was determined by NMR. After four weeks of treatment an oral glucose tolerance test was carried out after an overnight fasting period. The blood glucose levels were measured before (fasted state glucose levels) application of an oral glucose load (1 g/kg body weight) and after 15, 30, 45, 60, 90, 120, 150 and 180 minutes. Area under the curve (AUC) was calculated from the resulting blood glucose curves and served as an indicator of glucose tolerance. At the end of the study, fed state levels of glucose, triglycerides and free fatty acids were determined in plasma. All data are expressed as means for animals in each group.

The subject of assay [2] is C57BLKS/J db/db mice. The assay is described as follows: Oral glucose tolerance test and fasted state glucose in db/db mice after 4 weeks. The class given is in vivo. The following applies: for Fasted state glucose: blood, overnight fasting, before glucose load. Here is the method: as §1, §2
Assay [3] deals with C57BLKS/J db/db mice. The assay can be described thus: Body weight, adipose tissue weight and food intake in the 4-week db/db mouse study. The class given is in vivo. To be noted: for Total adipose tissue weight / Body weight: 4 weeks feed-ad-mix, 1% EGCG and/or 0.038% rosiglitazone in diet, group means; for Total adipose tissue weight: by NMR; for Body weight: * vs control, # vs rosiglitazone (P<0.05). Here is the method: as §1, §2

The subject of assay [4] is C3H10T1/2. The assay is described as follows: Adipocyte differentiation of C3H10T1/2 cells, oil red O staining. Type of assay: cell-based. To be noted: for Optical Density: extracted oil red O stain after 11-day treatment, insulin 100 nM.
Text: After the 11-day treatment, the cells were stained with oil red O. This was followed by extraction of the stain for concentration determination.
Setting [5] is: fed state plasma, 1% EGCG and/or 0.038% rosiglitazone in diet.
Setting [6] is: 1% EGCG and/or 0.038% rosiglitazone in diet.

“Also recorded” adds a separate entry of the source. Marks after values point to notes of the source that are not given here.

In the case of `CN(CCOc1ccc(CC2SC(=O)NC2=O)cc1)c1ccccn1` (stereo not shown) [Rosiglitazone, rosiglitazone, reference compound], in assay [1] (setting [5]), the Free fatty acids is 25.2* mmol/l, the Glucose is 22.1* mmol/l and the Triglycerides is 1.01* mmol/l. The Fasted state glucose in assay [2] (setting [6]) is on record as 98.0* mg/dl. For the same molecule, in assay [3], the “Total adipose tissue weight” value is reported as 29.0* g and the Body weight is given as 50.0* g.

In the case of “Insulin: insulin, 100 nM, used alone as comparison in the adipocyte differentiation test [reference compound]”, the “Optical Density” value amounted to 0.21 ± 0.02 in assay [4] (Table 1, rosiglitazone 1 × 10^−5 M, pioglitazone 2.5 × 10^−5 M, EGCG 5 × 10^−5 M) and 0.14 ± 0.01 in assay [4] (Table 2, ligustilide 50 × 10^−5 M, no EGCG).

(−)-epigallocatechin gallate [EGCG]: the “Fed state plasma levels of glucose, triglycerides, and free fatty acids (result in words)” value in assay [1] was “significantly reduced”. Also, in assay [1] (setting [5]), the Glucose is on record as 33.5*# mmol/l and the Triglycerides was 1.47* mmol/l. Moreover, the Fasted state glucose in assay [2] (setting [6]) is on record as 132.1* mg/dl. Also, the AUC in assay [2] (1% EGCG and/or 0.038% rosiglitazone in diet, oral glucose load 1 g/kg, blood glucose curve 0-180 minutes) is given as 38353.5*. Further, the “Glucose tolerance (result in words)” value in assay [2] (AUC of oral glucose tolerance test) is “significantly improved”. Also, in assay [2] (compared to control mice), the “Fasted state glucose levels (result in words)” value was “significantly reduced”. In assay [3], the “Total adipose tissue weight” value is recorded as 20.9*# g and the Body weight is reported as 38.8*# g. The “Body weight and adipose tissue weight (result in words)” value in assay [3] (4 weeks, compared to control mice) is on record as “moderately decreased”. The “Adipocyte differentiation (result in words)” value in assay [4] (C3H10T1/2 cells, 11-day treatment, oil Red O staining) is “blocked TZD-induced adipocyte differentiation; also recorded: blocked ligustilide-induced adipocyte differentiation”.
